Patent US4474783A, “Cyclopropylmethyl piperazines, the process for preparing the same and their use in therapeutics” (Innothera, priority 1980, dated 1984)

Tested on: not listed separately
Assay: acute toxicity, intravenous, male mice (LD50, Litchfield and Wilcoxon)
Conditions: mouse, in vivo, 100 mg/kg i.v.
Experimental: A toxicological study was also carried out on the compounds according to the invention.
More particularly, the acute toxicity was studied by introduction into the veins of male mice (10 animals per group), E.O.P.S. of the Swiss strain (bred by EVIC-CEBA).
The compounds to be tested were rendered soluble in physiological serum at variable concentrations and the solution obtained injected into the veins in an amount of 10 ml per kg of body weight. Administration was carried out in 20 seconds.
The animals were kept under clinical observation for three hours after administration and then daily for 7 days.
The lethal doses 50 (LD50) were calculated using the method of Litchfield and Wilcoxon (J. Pharmacol. Exp. Therap., 96-99, 1949) on the basis of the different mortality rates observed.
Work on COc1cc(C(=O)N2CCN(CC3CC3)CC2)cc(OC)c1OC [compound 16] yielded a mortality at 168 h of 30%.

Same assay, conditions: mouse, in vivo, i.v., 10 animals per group, 7 days observation, 95% confidence limit in brackets
C1CC1CN1CCN(CC2CC2)CC1 [3a] gave an LD50 at 168 h of 110 mg/kg. With CCOC(=O)N1CCN(CC2CC2)CC1 [6a] the LD50 at 168 h was 41 mg/kg. With CN1CCN(CC2CC2)CC1 [Code No. 2] the LD50 at 168 h was 320 mg/kg. Work on CCCCCN1CCN(CC2CC2)CC1 [Code No. 4] yielded an LD50 at 168 h of 37.5 mg/kg. In the case of OCCN1CCN(CC2CC2)CC1 [Code No. 5], the LD50 at 168 h is reported as 460 mg/kg. CC(CN1CCN(CC2CC2)CC1)C(=O)O (centres unmarked) [compound 7] showed an LD50 at 168 h of 190 mg/kg. Work on CC(CN1CCN(CC2CC2)CC1)C(=O)NCc1ccccc1 (centres unmarked) [compound 8] yielded an LD50 at 168 h of 245 mg/kg. For COc1ccccc1N1CCN(CC2CC2)CC1 [compound 10], the LD50 at 168 h was 34 mg/kg. Compound FC(F)(F)c1cccc(N2CCN(CC3CC3)CC2)c1 [compound 11] has an LD50 at 168 h of 30 mg/kg. Compound CC(=O)c1ccc(N2CCN(CC3CC3)CC2)cc1 [compound 12] has an LD50 at 168 h of 90 mg/kg. CC1CN(CC2CC2)CCN1CC1CC1 (centres unmarked) [compound 13] showed an LD50 at 168 h of 104 mg/kg. Compound c1ccc(CN2CCN(CC3CC3)CC2)cc1 [compound 14] has an LD50 at 168 h of 46 mg/kg. Compound O=C(c1ccc2c(c1)OCO2)N1CCN(CC2CC2)CC1 [compound 15] has an LD50 at 168 h of 155 mg/kg. With COc1cc(C(=O)N2CCN(CC3CC3)CC2)cc(OC)c1OC [compound 17] the LD50 at 168 h was 245 mg/kg. In the case of CCOC(=O)Oc1c(OC)cc(C(=O)N2CCN(CC3CC3)CC2)cc1OC [compound 18], the LD50 at 168 h is reported as 225 mg/kg. Compound O=C(C=Cc1cccc(C(F)(F)F)c1)N1CCN(CC2CC2)CC1 [compound 19] has an LD50 at 168 h of 95 mg/kg. Work on COc1cc(C=CC(=O)N2CCN(CC3CC3)CC2)cc(OC)c1OC [compound 20] yielded an LD50 at 168 h of 52 mg/kg. In the case of COc1ccc(OCC(=O)N2CCN(CC3CC3)CC2)cc1 [compound 21], the LD50 at 168 h is reported as 115 mg/kg. O=C(COc1ccc(F)cc1)N1CCN(CC2CC2)CC1 [compound 22] showed an LD50 at 168 h of 100 mg/kg. Work on CC1CN(CC2CC2)CCN1 (centres unmarked) [compound 23] yielded an LD50 at 168 h of 280 mg/kg. Compound CC1CN(CC2CC2)CCN1CCN(C)C (centres unmarked) [compound 24] has an LD50 at 168 h of 200 mg/kg. CCN(CC)CCN1CCN(CC2CC2)CC1C (centres unmarked) [compound 25] showed an LD50 at 168 h of 150 mg/kg. For CC1CN(CC2CC2)CCN1CCN1CCCC1 (centres unmarked) [compound 26], the LD50 at 168 h was 158 mg/kg. Compound CC1CN(CC2CC2)CCN1CCN1CCCCC1 (centres unmarked) [compound 27] has an LD50 at 168 h of 155 mg/kg. Work on CC1CN(CC2CC2)CCN1CCN1CCCCCC1 (centres unmarked) [compound 28] yielded an LD50 at 168 h of 95 mg/kg. CC1CN(CC2CC2)CCN1CCN1CCOCC1 (centres unmarked) [compound 29] gave an LD50 at 168 h of 250 mg/kg. In the case of CCN(CC)CCCN1CCN(CC2CC2)CC1C (centres unmarked) [compound 30], the LD50 at 168 h is reported as 135 mg/kg. In the case of CC1CN(CC2CC2)CCN1CCCN1CCCC1 (centres unmarked) [compound 31], the LD50 at 168 h is reported as 165 mg/kg. CC1CN(CC2CC2)CCN1CCCN1CCCCC1 (centres unmarked) [compound 32] gave an LD50 at 168 h of 162 mg/kg. In the case of CC1CN(CC2CC2)CCN1CCCN1CCCCCC1 (centres unmarked) [compound 33], the LD50 at 168 h is reported as 130 mg/kg. In the case of CC1CN(CC2CC2)CCN1CCCN1CCOCC1 (centres unmarked) [compound 34], the LD50 at 168 h is reported as 215 mg/kg. Work on CC1CN(CC2CC2)CCN1Cc1ccc2c(c1)OCO2 (centres unmarked) [compound 35] yielded an LD50 at 168 h of 77 mg/kg. Compound CC1CN(CC2CC2)CCN1Cc1ccc2c(c1Cl)OCO2 (centres unmarked) [compound 36] has an LD50 at 168 h of 65 mg/kg. CC1CN(CC2CC2)CCN1Cc1csc2ccccc12 (centres unmarked) [compound 37] gave an LD50 at 168 h of 40 mg/kg. COc1cc(C(=O)N2CCN(CC3CC3)CC2C)cc(OC)c1OC (centres unmarked) [compound 38] showed an LD50 at 168 h of 130 mg/kg. COc1cc(C(=O)N2CCN(CC3CC3)CC2C)cc(OC)c1OC(C)=O (centres unmarked) [compound 39] showed an LD50 at 168 h of 225 mg/kg.

Tested on: isolated left auricle of the Guinea pig
Assay: inotropic activity: contractile force of isolated, electrically stimulated left auricle (Lumley, Broadley and Levy technique; cumulative method of Van Rossum)
Conditions: 36° C., cumulative concentrations, minimum of three dose-action curves
From the text: The technique used is that of P. Lumley, K. J. Broadley and G. P. Levy described in Cardiovascular Research, 11, 17-25, 1977. This technique is used to study the β1 cardiac inotrope function; the β1 receptors being cardiac in the Guinea pig as in man, the results obtained with the Guinea pig are applicable to man.
Guinea pigs of either sex are killed by a knock and bled; the left auricle is rapidly removed and immediately immersed in a Kreibs-Henseleit solution, the temperature being thermostatically maintained at 36° C. and aerated by a mixture of O2 and CO2 (95% and 5%). Two linen threads are attached to its ends: one is used to make contact between the auricle and a silver negative stimulating electrode, the other serves to connect the preparation to an isometric myograph (F-50 NARCO) and then to a recording system (Physiograph type M-K III NARCO).
Some 60 minutes are needed to ensure stability of the preparation.
Throughout the test, the auricle is activated electrically by a neurostimulator (Equipment Industriel II): voltage: supramaximum--width: 5 milli/sec.--frequency: 90 to 120 beats per minute.
Agonists, reference substances or compounds according to the invention, are added to the nutrient medium using the cumulative method of Van Rossum (Arch. Inter. Pharmacodyn., 143, 299-330, 1963). After adding each given amount of agonists, three minutes are allowed to pass before a further given amount of the product under study is added according to the method described above. The response of the organ to each concentration was assessed by the resultant increase in contractile force measured in gram. This was expressed as a percentage of the maximum increase (100%) for each compound and a dose-action curve was plotted. The agonist effect was quantified by calculating pD2 (E. J. Ariens and J. M. Van Rossum., Arch. Intern. Pharmacodyn. CX, No. 2, 2, 19 and Arch. Inter. Pharmacodyn. 143, 299-330, 1963) which characterizes the affinity of the compound under test for the receptors.
The agonist effect was also characterized by the intrinsic activity […] which defines the relative power of the agonist with respect to a standard which, in the tests, was dopamine, the intrinsic activity of which is taken arbitrarily to be α=1.
The results obtained are shown in table II below, it being assumed that:
the higher the value of pD2 and the more marked the affinity of the compound under test for the receivers, and
the higher the value of α, the better is the intrinsic activity.
In the case of COc1cc(C(=O)N2CCN(CC3CC3)CC2)cc(OC)c1OC [compound 16], the “Inotropic action pD2” value is reported as 5.06. With COc1cc(C(=O)N2CCN(CC3CC3)CC2)cc(OC)c1OC [compound 17] the “Inotropic action pD2” value was 3.50.

Same assay, conditions: Cavia porcellus, 36° C., cumulative concentrations, minimum of three dose-action curves, read-out: Inotropic action pD2 (converted)
C1CC1CN1CCN(CC2CC2)CC1 [3a] showed an EC50 of 30.2 µM. For CCOC(=O)N1CCN(CC2CC2)CC1 [6a], the EC50 was 1260 µM. With CN1CCN(CC2CC2)CC1 [Code No. 2] the EC50 was 112 µM. For CC(CN1CCN(CC2CC2)CC1)C(=O)NCc1ccccc1 (centres unmarked) [compound 8], the EC50 was 53.7 µM. CC(=O)c1ccc(N2CCN(CC3CC3)CC2)cc1 [compound 12] gave an EC50 of 55 µM. Compound CC1CN(CC2CC2)CCN1CC1CC1 (centres unmarked) [compound 13] has an EC50 of 3.63 µM. O=C(c1ccc2c(c1)OCO2)N1CCN(CC2CC2)CC1 [compound 15] showed an EC50 of 363 µM. With COc1cc(C=CC(=O)N2CCN(CC3CC3)CC2)cc(OC)c1OC [compound 20] the EC50 was 776 µM. In the case of COc1ccc(OCC(=O)N2CCN(CC3CC3)CC2)cc1 [compound 21], the EC50 is reported as 22.4 µM. In the case of O=C(COc1ccc(F)cc1)N1CCN(CC2CC2)CC1 [compound 22], the EC50 is reported as 17.8 µM. For CC1CN(CC2CC2)CCN1 (centres unmarked) [compound 23], the EC50 was 178 µM. In the case of CC1CN(CC2CC2)CCN1CCN1CCCC1 (centres unmarked) [compound 26], the EC50 is reported as 14.1 µM. For CC1CN(CC2CC2)CCN1CCN1CCCCC1 (centres unmarked) [compound 27], the EC50 was 47.9 µM. For CC1CN(CC2CC2)CCN1CCCN1CCCC1 (centres unmarked) [compound 31], the EC50 was 26.9 µM. Work on CC1CN(CC2CC2)CCN1CCCN1CCCCC1 (centres unmarked) [compound 32] yielded an EC50 of 0.525 µM. CC1CN(CC2CC2)CCN1CCCN1CCOCC1 (centres unmarked) [compound 34] gave an EC50 of 5.13 µM. CC1CN(CC2CC2)CCN1Cc1ccc2c(c1)OCO2 (centres unmarked) [compound 35] showed an EC50 of 5.25 µM. For COc1cc(C(=O)N2CCN(CC3CC3)CC2C)cc(OC)c1OC(C)=O (centres unmarked) [compound 39], the EC50 was 25.7 µM.

Same assay, conditions: Cavia porcellus, relative to dopamine, α=1, read-out: Inotropic action α (intrinsic activity)
For C1CC1CN1CCN(CC2CC2)CC1 [3a], the Emax was 69%. With CCOC(=O)N1CCN(CC2CC2)CC1 [6a] the Emax was 58%. With CN1CCN(CC2CC2)CC1 [Code No. 2] the Emax was 48%. In the case of CC(CN1CCN(CC2CC2)CC1)C(=O)NCc1ccccc1 (centres unmarked) [compound 8], the Emax is reported as 57%. For CC(=O)c1ccc(N2CCN(CC3CC3)CC2)cc1 [compound 12], the Emax was 82%. Compound CC1CN(CC2CC2)CCN1CC1CC1 (centres unmarked) [compound 13] has an Emax of 36%. O=C(c1ccc2c(c1)OCO2)N1CCN(CC2CC2)CC1 [compound 15] showed an Emax of 88%. COc1cc(C=CC(=O)N2CCN(CC3CC3)CC2)cc(OC)c1OC [compound 20] showed an Emax of 49%. COc1ccc(OCC(=O)N2CCN(CC3CC3)CC2)cc1 [compound 21] showed an Emax of 69%. With O=C(COc1ccc(F)cc1)N1CCN(CC2CC2)CC1 [compound 22] the Emax was 48%. Compound CC1CN(CC2CC2)CCN1 (centres unmarked) [compound 23] has an Emax of 75%. Compound CC1CN(CC2CC2)CCN1CCN1CCCC1 (centres unmarked) [compound 26] has an Emax of 32%. CC1CN(CC2CC2)CCN1CCN1CCCCC1 (centres unmarked) [compound 27] showed an Emax of 40%. Work on CC1CN(CC2CC2)CCN1CCCN1CCCC1 (centres unmarked) [compound 31] yielded an Emax of 25%. With CC1CN(CC2CC2)CCN1CCCN1CCCCC1 (centres unmarked) [compound 32] the Emax was 12%. Compound CC1CN(CC2CC2)CCN1CCCN1CCOCC1 (centres unmarked) [compound 34] has an Emax of 24%. For CC1CN(CC2CC2)CCN1Cc1ccc2c(c1)OCO2 (centres unmarked) [compound 35], the Emax was 17%. Work on COc1cc(C(=O)N2CCN(CC3CC3)CC2C)cc(OC)c1OC(C)=O (centres unmarked) [compound 39] yielded an Emax of 69%.

Same assay, conditions: relative to dopamine, α=1
In the case of COc1cc(C(=O)N2CCN(CC3CC3)CC2)cc(OC)c1OC [compound 16], the “Inotropic action α (intrinsic activity)” value is reported as 0.52. In the case of COc1cc(C(=O)N2CCN(CC3CC3)CC2)cc(OC)c1OC [compound 17], the “Inotropic action α (intrinsic activity)” value is reported as 0.19.
